Test systems include SNB-78; KM-20L2; DMS-273; XF498; HOP-18; M19-MEL; DLD-1; DMS-114; RXF 631.
Common to all, as to assay: NCI-60 cell line screen, 48 h

This is an account of results in ChEMBL document CHEMBL1201862, “PubChem BioAssay data set” (2004).

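Assay format: 96-well plates, 48-hour exposure. GI50 is the concentration that inhibits growth by half.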 Active and inactive are the calls of the source. No stated cut-off is given here; in the data, active = GI50 up to about 1.1 µM and inactive = higher.

Regarding `CN(/N=C/c1ccnc2ccccc12)c1ccc([N+](=O)[O-])cc1[N+](=O)[O-]`, the GI50 was 42.3 µM (inactive) with SNB-78; > 100 µM (inactive) in the assay with KM-20L2; > 100 µM (inactive) with DMS-273; > 100 µM (inactive) in the assay on XF498; > 100 µM (inactive) with HOP-18; > 100 µM (inactive) in the assay on M19-MEL. Also, the GI50 in the assay on DLD-1 and in the assay with DMS-114 was > 100 µM (inactive) each time.
For `Nc1ccc(C(=O)NN2C(=O)C(Cl)C2c2ccccc2O)cc1` (configuration not stated), the GI50 in the assay with SNB-78 was > 100 µM (inactive); with KM-20L2, 70 µM (inactive); in the assay on DMS-273 it was 55.2 µM (inactive); in the assay with XF498 it was 37.3 µM (inactive); in the assay on M19-MEL, 49.1 µM (inactive); in the assay on DLD-1 it was 54.3 µM (inactive). Moreover, the GI50 in the assay with DMS-114 is 21.1 µM (inactive).
For `C/C=C/C=N/N(c1nnc(-c2ccccc2)c(-c2ccccc2)n1)S(=O)(=O)c1ccc(C)cc1`, the GI50 in the assay with SNB-78 was 15.3 µM (inactive); in the assay on KM-20L2, 13.2 µM (inactive); in the assay with DMS-273 it was 11.1 µM (inactive); in the assay with RXF 631, 17.5 µM (inactive); with HOP-18, 14.2 µM (inactive); in the assay with M19-MEL it was 13.2 µM (inactive). Moreover, the results for the GI50 with DLD-1 and in the assay with DMS-114 were 5.05 µM (inactive) and 13 µM (inactive), respectively.
For the compound `COC(=O)/C(C#N)=C1\NN=NN1CCCN1CCOCC1`, the GI50 in the assay with SNB-78, with DMS-273, with HOP-18, in the assay with M19-MEL, in the assay with DLD-1 and with DMS-114 was > 100 µM (inactive) in each case.
Regarding `O=C(O)CSc1nnc(-c2ccccc2)[nH]1`, the GI50 in the assay on KM-20L2, with DMS-273, in the assay on XF498, in the assay with HOP-18, in the assay with M19-MEL and with DLD-1 was > 100 µM (inactive) throughout.
As for `CC(C)(C)OC(=O)Cc1ccc2c(ccn2Cc2ccccc2)c1`, the GI50 in the assay on SNB-78 was > 100 µM (inactive); in the assay with KM-20L2, 26.3 µM (inactive); in the assay with DMS-273 it was 48 µM (inactive); in the assay with RXF 631 it was 25.9 µM (inactive); with HOP-18 it was > 100 µM (inactive); in the assay with M19-MEL, 62.4 µM (inactive). Further, the GI50 in the assay on DLD-1 was 57.3 µM (inactive); in the assay with DMS-114, 18.7 µM (inactive).
For the compound `Oc1nc(S)nc2c1CCCN2`, the GI50 with SNB-78, in the assay with RXF 631, in the assay with HOP-18, in the assay with M19-MEL, with DLD-1 and in the assay on DMS-114 was > 100 µM (inactive) in each case.
With `CC(=O)OC1CC(n2cc(F)c(=O)[nH]c2=O)OC1CO` (configuration not stated), the GI50 in the assay with SNB-78 was > 100 µM (inactive); with KM-20L2, 0.962 µM (active); with DMS-273, 0.331 µM (active); in the assay with XF498 it was 13.7 µM (inactive); in the assay with HOP-18 it was 6.61 µM (inactive); with M19-MEL, > 100 µM (inactive). In addition, the GI50 in the assay on DLD-1 is 28.8 µM (inactive); in the assay on DMS-114, 1.36 µM (inactive).
For `C1CC2=C(C1)C1=S(S2)SC2=C1CCC2`, the GI50 in the assay on SNB-78, with KM-20L2, with DMS-273, in the assay with RXF 631, in the assay with HOP-18 and with M19-MEL was > 100 µM (inactive) throughout. For the same compound, the GI50 with DLD-1 and in the assay on DMS-114 was > 100 µM (inactive) throughout.
On to `C1OCC2S[C@@H]3COCO[C@@H]3C2O1` (some centres not stated), for which the GI50 with SNB-78, in the assay with KM-20L2, in the assay with DMS-273, with XF498, in the assay on M19-MEL and in the assay on DLD-1 was > 100 µM (inactive) each time. For the same compound, the GI50 with DMS-114 is > 100 µM (inactive).
As for `CC(C)=C1CCC(CN(C)C)C1=O` (configuration not stated), the GI50 in the assay on SNB-78 is > 10 µM (inactive); in the assay on KM-20L2, 13.7 µM (inactive); in the assay with RXF 631, 13.6 µM (inactive); with HOP-18, 22.1 µM (inactive); in the assay with M19-MEL, 47.2 µM (inactive); with DLD-1, 6.85 µM (inactive). Further, the GI50 with DMS-114 is 16.5 µM (inactive).
Consider `CN(C(=O)C1CC1)C1C2CN3CCC(O2)C13` (configuration not stated), for which the GI50 was 94.4 µM (inactive) with SNB-78; > 100 µM (inactive) in the assay on KM-20L2; > 100 µM (inactive) in the assay with DMS-273; > 100 µM (inactive) with HOP-18; > 100 µM (inactive) in the assay with M19-MEL; > 100 µM (inactive) in the assay on DLD-1. In addition, in the assay with DMS-114, the GI50 is > 100 µM (inactive).
For the compound `CCCCC1CC(c2cccc([N+](=O)[O-])c2)=NO1` (configuration not stated), the GI50 was > 100 µM (inactive) in the assay with SNB-78; > 100 µM (inactive) with KM-20L2; > 100 µM (inactive) in the assay on DMS-273; 80.7 µM (inactive) in the assay on RXF 631; 80.4 µM (inactive) in the assay on HOP-18; 74.6 µM (inactive) with M19-MEL. The values for the GI50 in the assay on DLD-1 and in the assay with DMS-114 were > 100 µM (inactive) and 40.6 µM (inactive), respectively.
Take `Cn1c2c(c3ccccc31)CCN(CCCCN1CCN(c3cccc(Cl)c3)CC1)C2=O`: the GI50 with SNB-78 was 2.88 µM (inactive); in the assay with KM-20L2, 4.17 µM (inactive); with DMS-273 it was 9.06 µM (inactive); with XF498 it was 14.4 µM (inactive); in the assay on HOP-18 it was 29 µM (inactive); with M19-MEL, 11.5 µM (inactive). For the same compound, the figures for the GI50 in the assay with DLD-1 and in the assay on DMS-114 were 10.6 µM (inactive) and 1.67 µM (inactive), respectively.
For the compound `CC(=O)/C=C/c1ccc(C)cc1`, the GI50 in the assay on SNB-78, in the assay with KM-20L2, in the assay on DMS-273, in the assay on HOP-18, in the assay with M19-MEL and with DLD-1 was > 100 µM (inactive) in each case. For the same compound, the GI50 in the assay with DMS-114 is > 100 µM (inactive).
In the case of `CC(=O)Nc1ccc(C(=O)NN2C(=O)C(Cl)C2c2ccc(Cl)cc2)cc1` (configuration not stated), the GI50 was 64.4 µM (inactive) in the assay on HOP-18, > 100 µM (inactive) in the assay on M19-MEL and > 100 µM (inactive) in the assay on DLD-1.
With `CCOc1ccc(/N=N/c2ccc3oc(=O)c(C(=O)Nc4ccc(OC)cc4)cc3c2)cc1`, the GI50 was 21.3 µM (inactive) in the assay on SNB-78; 32.2 µM (inactive) with KM-20L2; 25.8 µM (inactive) with DMS-273; 26.4 µM (inactive) with M19-MEL; 8.32 µM (inactive) with DLD-1.
Take `CC(C)=CCCc1c(C)ccc2c1C(=O)C(=O)C(C(C)C)=C2`: the GI50 was > 22 µM (inactive) with KM-20L2; 3.97 µM (inactive) in the assay on DMS-273; 3.77 µM (inactive) with XF498; 4.02 µM (inactive) in the assay on HOP-18; 3.87 µM (inactive) in the assay with M19-MEL; 3.48 µM (inactive) in the assay on DLD-1. The GI50 with DMS-114 was 4.2 µM (inactive).
For the compound `O=C(O)CCC1CCc2cccc(OCC(=O)O)c2C1=O` (configuration not stated), the GI50 with SNB-78, in the assay with KM-20L2, in the assay with DMS-273, with XF498, in the assay on HOP-18 and in the assay on M19-MEL was > 100 µM (inactive) throughout. Moreover, the GI50 in the assay on DLD-1 and in the assay on DMS-114 was > 100 µM (inactive) in each case.
